Measured values published in EP0246061A2, “A benzoylurea derivative and its production and use” (SUMITOMO CHEMICAL COMPANY, LIMITED, priority 1986, dated 1987).
Where two headings read alike, the source gives them in different places.

Legend:
Type in all cases: in vivo
[1] = tested on: common mosquito (Culex pipiens pallens); test: Emergence inhibition test on last instar larvae of common mosquito in aqueous dilute solution (Test example 1); details: active ingredient concentration 3.5 ppm in water; 20 last instar larvae; bred until emergence; two replications
Experimental: The emulsifiable concentrates of the following present compounds prepared according to Formulation example 1 were each diluted with water so that the active ingredient concentration was 3.5 ppm. Thereafter, 100 ml of the aqueous dilute solution thus obtained was put in a 180-ml polyethylene cup, and 20 last instar larvae of common mosquito (Culex pipiens pallens) were liberated therein. The larvae were bred on a bait until emergence to obtain an emergence inhibitory ratio (two replications).

[2] = tested on: tobacco cutworm (Spodoptera litura); test: Mortality test on fourth instar larvae of tobacco cutworm on treated artificial diet (Test example 2); details: 144 h; for mortality at 0.5 ppm: read-out: Concentration and mortality (%) 0.5 ppm; for mortality at […]: in Nicotiana tabacum, read-out: Concentration and mortality (%) […], 1.5 ppm, 2 ml on 13 g artificial diet, ten fourth instar larvae, after six days, two replications
Experimental: The emulsifiable concentrates of the following present compounds and controls prepared according to Formulation example 1 were each diluted with water to a prescribed concentration, and 2 ml of the aqueous dilute solution thus obtained was applied onto 13 g of artificial diet for tobacco cutworm (Spodoptera litura) which were then put in a polyethylene cup of 11 cm in diameter. Then, ten fourth instar larvae of tobacco cutworm were liberated therein. After six days, the dead and alive were examined to obtain mortality (two replications).

[3] = tested on: rice stem borer (Chilo suppressalis); test: Mortality test on 10-day old larvae of rice stem borer on treated artificial diet (Test example 3); details: 192 h, 67,000-fold dilution (1.5 ppm), 1 ml on 5 g artificial diet, ten 10-day old larvae, after eight days, two replications
Description: Then, ten 10-day old larvae of rice stem borer were liberated therein. After eight days, the dead and alive were examined to obtain mortality (two replications).

[4] = tested on: diamond-back moth (Plutella xylostella) of a field strain; test: Emergence inhibition test on third instar larvae of diamond-back moth, cabbage leaf dipping (Test example 4); details: 200,000-fold dilution (0.5 ppm); cabbage leaf dipped 1 minute; ten third instar larvae; after nine days; corrected against untreated plot; two replications
Experimental: A circular cabbage leaf of 9.0 cm in diameter was dipped for 1 minute in the 200,000-fold aqueous dilute solutions each (corresponding to 0.5 ppm) of emulsifiable concentrates prepared from the following present compounds and controls according to Formulation example 1. After air-drying, the leaf was put in a polyethylene cup of 11 cm in diameter in which a filter paper was placed on the bottom, and ten third instar larvae of diamond-back moth (Plutella xylostella) of a field strain were liberated therein. After nine days, the number of emergence was examined to obtain an emergence inhibitory ratio (two replications).

[5] = 0.5 ppm, 2 ml on 13 g artificial diet, ten fourth instar larvae, after six days, two replications

SMILES	Emergence inhibitory ratio (%) [1] [%]	mortality at 0.5 ppm [2, 5] [%]	mortality at […] [2] [%]	mortality at […] [3] [%]	Emergence inhibitory ratio (%) [4] [%]	mortality at 0.5 ppm [2] [%]
O=C(NC(=O)c1c(F)cc(F)cc1F)Nc1ccc(C(F)(F)F)cc1F [(5), N-2,4,6-trifluorobenzoyl-Nʹ-2-fluoro-4-trifluoromethylphenylurea]	100	100	100	100	100	–
O=C(NC(=O)c1c(F)cc(F)cc1F)Nc1ccc(C(F)(F)C(F)(F)F)cc1F [(10), N-2,4,6-trifluorobenzoyl-Nʹ-2-fluoro-4-pentafluoroethylphenylurea]	100	100	100	80	100	–
O=C(NC(=O)c1c(F)cccc1F)Nc1cc(Cl)c(C(F)(F)F)cc1F [(4), N-2,6-difluorobenzoyl-Nʹ-5-chloro-2-fluoro-4-trifluoromethylphenylurea]	100	70	100	100	89	–
O=C(NC(=O)c1c(F)cccc1F)Nc1cc(F)c(C(F)(F)F)cc1F [(2), N-2,6-difluorobenzoyl-Nʹ-2,5-difluoro-4-trifluoromethylphenylurea]	100	100	100	100	100	–
O=C(NC(=O)c1c(F)cccc1F)Nc1cc(Cl)cc(C(F)(F)F)c1Cl [(F), reference compound]	–	20	60	10	22	–
O=C(NC(=O)c1c(F)cccc1F)Nc1cc(F)c(C(F)(F)C(F)(F)C(F)(F)F)cc1F [(7), N-2,6-difluorobenzoyl-Nʹ-2,5-difluoro-4-heptafluoropropylphenylurea]	100	100	100	100	100	–
O=C(NC(=O)c1c(F)cc(F)cc1F)Nc1cc(F)c(C(F)(F)C(F)(F)C(F)(F)F)cc1F [(8), N-2,4,6-trifluorobenzoyl-Nʹ-2,5-difluoro-4-heptafluoropropylphenylurea]	100	–	–	80	73	–
O=C(NC(=O)c1c(F)cccc1F)Nc1ccc(C(F)(F)C(F)(F)F)cc1F [(9), N-2,6-difluorobenzoyl-Nʹ-2-fluoro-4-pentafluoroethylphenylurea]	100	100	100	90	100	–
O=C(NC(=O)c1c(F)cccc1F)Nc1ccc(Cl)cc1F [(E), reference compound]	–	10	45	35	33	–
CNC(=O)ON=C(C)SC [(D), Methomyl, reference compound]	–	0	10	5	0	–
O=C(NC(=O)c1c(F)cccc1F)Nc1cc(F)c(C(F)(F)C(F)(F)F)cc1F [(6), N-2,6-difluorobenzoyl-Nʹ-2,5-difluoro-4-pentafluoroethylphenylurea]	100	100	100	80	100	–
O=C(NC(=O)c1c(F)cccc1F)Nc1ccc(Cl)cc1 [(A), Diflubenzuron, reference compound]	–	–	–	–	11	5
O=C(NC(=O)c1c(F)cc(F)cc1F)Nc1cc(F)c(C(F)(F)F)cc1F [(3), N-2,4,6-trifluorobenzoyl-Nʹ-2,5-difluoro-4-trifluoromethylphenylurea]	100	100	100	90	89	–
O=C(NC(=O)c1c(F)cccc1F)Nc1ccc(C(F)(F)F)cc1F [(1), N-2,6-difluorobenzoyl-Nʹ-2-fluoro-4-trifluoromethylphenylurea]	100	80	100	90	100	–
O=C(NC(=O)c1c(F)cccc1F)Nc1cc(Cl)c(F)c(Cl)c1F [(C), Teflubenzuron, reference compound]	–	–	–	–	33	20
